In PMC8370248, “Key Metabolic Enzymes Involved in Remdesivir Activation in Human Lung Cells” (Antimicrobial Agents and Chemotherapy, 2021):
Like-named read-outs stand apart in the source and are kept apart here.

How the values were obtained:
[1] = tested on: NHBE cells; assay: Effect of hydrolase inhibitors on GS-443902 formation from RDV in NHBE cells; assay type: cell-based, human; settings: coincubation with 1 μM RDV, 24 h, three donors
Description: Cells were harvested at 24 h after compound addition, and the GS-443902 levels were assessed by an LC-MS method.
NHBE cells (5 × 10^5) in 2 ml of BEGM media were seeded in each well of a 6-well plate and incubated overnight at 37°C and 5% CO2. […] Twenty-four hours post-compound addition, the cells were washed 3× with 1 ml of cold 1× Tris-HCl (pH 7.0)-buffered saline, and cells were harvested in 500 μl dry ice-cold extraction buffer (0.1% potassium hydroxide and 67 mM ethylenediamine tetra-acetic acid in 70% methanol, containing 0.5 μM chloro-ATP as internal standard) and transferred to a deep-well block on dry ice. The deep-well block was stored at −80°C until processing. At the time of harvest, two untreated wells for each donor were trypsinized, and the cell counts were determined. All compound combinations were tested in duplicate in cells from three donors.
Each NHBE sample was treated with 500 μl of dry ice-cold extraction buffer (0.1% potassium hydroxide and 67 mM ethylenediamine tetra-acetic acid in 70% methanol, containing 0.5 μM chloro-ATP as internal standard). The above solution was vortexed for 5 min and then centrifuged at 20,000 × g for 10 min. The supernatant was transferred to a clean 96-deep-well plate and then dried on an evaporator. Once dry, samples were reconstituted with 80 μl of 1 mM ammonium phosphate buffer (pH 7) and transferred to a 96-short-well plate for analysis. An aliquot of 10 μl was injected into a Sciex QTrap 6500+ liquid chromatography-tandem mass spectrometry (LC-MS/MS) system run under the multiple reaction monitoring (MRM) operation mode.
Standard calibration curves for NHBE were constructed based on pmol of compound per sample. […] Using the calibration curve, the amount of the metabolites was quantified in each sample, and the intracellular concentrations (pmol/million cells) were determined by dividing the value by the cell number in the sample.

[2] = molecular target: T1, HINT1 (Homo sapiens, UniProt P49773); assay: HINT1-catalyzed hydrolysis of RDV MetX, inhibition; assay type: biochemical
T1 construct: purchased Abcam (Cambridge, MA)
Description: Following protein precipitation and centrifugation, 150 μl of supernatants were dried down and reconstituted with 250 μl water. All samples were analyzed by LC-MS, and PAR values were used for quantification. Disappearance of the MetX substrate was monitored over the incubation time period. Three experiments were conducted with two replicates each experiment, and data are reported as averages from three experiments.
(§1) Data were analyzed using GraphPad Prism 8.0. IC50 values were calculated by nonlinear regression analysis using the following sigmoidal dose-response (variable slope) equation (four-parameter logistic equation). Y=100/[1+10^(logIC50−X)×HillSlope] where X is the log of the concentration of the test compound, and Y is the response. The IC50 values were calculated as an average of three or more independent experiments.

[3] = molecular target: T2, CatA (Homo sapiens, UniProt P10619); assay: CatA-catalyzed hydrolysis of fluorogenic peptide substrate, inhibition; assay type: biochemical; design: purchased R&D Systems (Minneapolis, MN)
T2 sequence (P10619 29-326 limits assumed): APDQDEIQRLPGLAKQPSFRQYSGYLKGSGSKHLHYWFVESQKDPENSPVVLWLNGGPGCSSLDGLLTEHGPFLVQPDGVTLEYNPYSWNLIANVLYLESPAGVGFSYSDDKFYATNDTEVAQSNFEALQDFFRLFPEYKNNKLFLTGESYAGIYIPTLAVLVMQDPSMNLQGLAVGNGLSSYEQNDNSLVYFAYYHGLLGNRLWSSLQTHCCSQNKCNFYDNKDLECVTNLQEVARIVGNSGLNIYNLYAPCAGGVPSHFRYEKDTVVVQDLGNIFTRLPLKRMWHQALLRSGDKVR
T2 sequence (P10619 327-480 limits assumed): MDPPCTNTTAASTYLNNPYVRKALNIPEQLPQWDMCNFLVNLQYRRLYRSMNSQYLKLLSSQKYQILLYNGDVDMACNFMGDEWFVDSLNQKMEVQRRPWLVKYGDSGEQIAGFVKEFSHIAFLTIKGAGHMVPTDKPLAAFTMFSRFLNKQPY
Description: The reaction was studied under both pH 6.5 (to match CatA-catalyzed RDV reaction conditions with minimal acidic hydrolysis) and pH 5.5 (to mimic acidic lysosomal environment). CatA was initially activated following the manufacturer’s protocol. […] Threefold dilutions of compounds were prepared in 100% DMSO. The final DMSO concentration was kept constant at 1% (vol/vol). […] The slopes of the progress curves were used to measure reaction rates. Reaction rates were plotted as a function of inhibitor concentration, and the data were fit with a four-parameter logistic fit using GraphPad Prism software to yield IC50 values.
as §1

[4] = molecular target: T3, CES1c (Homo sapiens, UniProt P23141); assay: CES1c-catalyzed hydrolysis of 4-NPA, inhibition by inhibitors; assay type: biochemical
T3 construct: purchased Corning Incorporated (Corning, NY); host or cells: baculovirus-infected insect cells (microsomal fraction, Supersomes)
T3 sequence (P23141 18-566 isoform P23141-3 limits assumed): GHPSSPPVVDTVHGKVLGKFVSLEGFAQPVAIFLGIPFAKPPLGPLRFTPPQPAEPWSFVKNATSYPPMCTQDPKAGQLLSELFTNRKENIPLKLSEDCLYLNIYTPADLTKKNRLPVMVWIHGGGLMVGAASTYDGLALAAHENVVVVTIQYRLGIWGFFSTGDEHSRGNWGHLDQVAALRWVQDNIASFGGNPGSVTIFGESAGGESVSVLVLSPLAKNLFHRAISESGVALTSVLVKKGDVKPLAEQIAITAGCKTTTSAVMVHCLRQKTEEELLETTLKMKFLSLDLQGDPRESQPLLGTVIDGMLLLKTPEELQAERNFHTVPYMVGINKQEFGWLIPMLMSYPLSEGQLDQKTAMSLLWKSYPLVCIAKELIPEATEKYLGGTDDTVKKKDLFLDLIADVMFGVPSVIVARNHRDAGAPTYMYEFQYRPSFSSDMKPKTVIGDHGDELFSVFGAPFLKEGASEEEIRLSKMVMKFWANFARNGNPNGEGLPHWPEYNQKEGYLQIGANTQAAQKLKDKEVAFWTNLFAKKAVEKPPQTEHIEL
Description: (§2) Threefold dilutions of compounds were prepared in 100% DMSO. Compounds (100 μM to 0.005 μM), CES isozymes, and substrate 4-NPA were mixed in a 100-μl reaction volume consisting of 100 mM potassium phosphate buffer (pH 7.4) and 1% DMSO. […] The slopes of the progress curves were used to calculate reaction rates. Reaction rates were plotted as a function of inhibitor concentration, and the data were fit with a four-parameter logistic model using GraphPad Prism software (version 8; La Jolla, CA) to yield IC50 values.
as §1

[5] = tested on: CES1; design: method as in PMID 20801890, PMID 25870059; settings: published data ref 7, 9; cited from earlier work
[6] = molecular target: T4, CES1b (Homo sapiens, UniProt P23141); assay: CES1b-catalyzed hydrolysis of 4-NPA, inhibition by inhibitors; assay type: biochemical
T4 construct: purchased Corning Incorporated (Corning, NY); host or cells: baculovirus-infected insect cells (microsomal fraction, Supersomes)
T4 sequence (P23141 18-567): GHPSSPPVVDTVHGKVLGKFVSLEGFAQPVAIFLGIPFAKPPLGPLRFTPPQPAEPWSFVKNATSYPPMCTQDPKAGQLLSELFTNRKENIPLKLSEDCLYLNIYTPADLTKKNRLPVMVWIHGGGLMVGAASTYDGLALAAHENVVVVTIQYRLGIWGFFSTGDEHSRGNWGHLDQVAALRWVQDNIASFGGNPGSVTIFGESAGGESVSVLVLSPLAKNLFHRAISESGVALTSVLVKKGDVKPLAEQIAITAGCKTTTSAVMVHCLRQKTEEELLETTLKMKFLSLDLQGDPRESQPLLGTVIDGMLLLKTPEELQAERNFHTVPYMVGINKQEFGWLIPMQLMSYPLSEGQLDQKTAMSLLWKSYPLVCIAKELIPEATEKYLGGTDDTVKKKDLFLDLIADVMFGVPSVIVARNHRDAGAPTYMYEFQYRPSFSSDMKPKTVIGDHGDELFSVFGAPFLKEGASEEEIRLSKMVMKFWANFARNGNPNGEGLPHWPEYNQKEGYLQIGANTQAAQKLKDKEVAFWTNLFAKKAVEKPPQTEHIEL
Description: as §2, §1

[7] = A549-hACE2 cytotoxicity analysis; settings: human, A549-hACE2 cells
Description: The cytotoxicity of compounds was determined in A549-hACE2 cells in the following manner. A549-hACE2 cells (12,000 cells per well in medium containing 2% FBS) were plated into a black opaque 96-well plate (Corning). The next day, 3-fold serial dilutions of compounds were prepared in DMSO in a manner to normalize the DMSO concentration among all cell culture wells. The compounds were further diluted 500-fold in the culture medium containing 2% FBS. Spent medium from overnight incubation was aspirated, 100 μl of diluted compound solutions were added to each well, and cultures were returned to 37°C with 5% CO2. […] Luciferase signals were measured using an Envision microplate reader. The relative luciferase signals were calculated by normalizing the luciferase signals of the compound-treated groups to that of the DMSO-treated groups (set as 100%). The relative luciferase signal (y axis) versus the compound concentration (x axis) was plotted in software GraphPad Prism 8 (version 8). […] Three independent experiments were performed with technical duplicates.

[8] = tested on: CatA; design: method as in PMID 20801890, PMID 25870059; settings: published data ref 7, 9; cited from earlier work
[9] = molecular target: T5, CES2 (Homo sapiens, UniProt O00748); assay: CES2-catalyzed hydrolysis of 4-NPA, inhibition by inhibitors; assay type: biochemical
T5 construct: purchased Corning Incorporated (Corning, NY); host or cells: baculovirus-infected insect cells (microsomal fraction, Supersomes)
T5 sequence (O00748 27-559): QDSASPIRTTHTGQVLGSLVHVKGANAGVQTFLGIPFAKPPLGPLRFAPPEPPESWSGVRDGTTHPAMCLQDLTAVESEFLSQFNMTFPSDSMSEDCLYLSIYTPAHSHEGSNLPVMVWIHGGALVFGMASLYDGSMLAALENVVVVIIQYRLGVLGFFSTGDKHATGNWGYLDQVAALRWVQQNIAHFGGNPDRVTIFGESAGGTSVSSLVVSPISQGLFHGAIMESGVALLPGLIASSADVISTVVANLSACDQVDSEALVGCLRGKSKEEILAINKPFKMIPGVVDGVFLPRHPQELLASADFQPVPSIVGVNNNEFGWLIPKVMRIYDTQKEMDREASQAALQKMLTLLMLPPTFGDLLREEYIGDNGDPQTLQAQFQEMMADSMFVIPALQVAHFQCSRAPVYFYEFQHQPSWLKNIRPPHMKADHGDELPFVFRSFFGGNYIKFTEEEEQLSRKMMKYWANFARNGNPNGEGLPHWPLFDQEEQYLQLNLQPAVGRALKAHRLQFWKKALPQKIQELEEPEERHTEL
Description: as §2, §1

[10] = tested on: SARS-CoV-2; assay: microbe, parasite or virus in culture; assay type: cell-based; settings: compound alone (plus DMSO), A549-hACE2 cells, 48 h
[11] = molecular target: HINT1; design: method as in PMID 31503445; settings: previously reported by Shah et al. ref 17; read-out: dissociation constant [Kd], HINT1; cited from earlier work
[12] = tested on: cellular activation of sofosbuvir (SOF); assay: Effect of HINT1 inhibitors on cellular activation of sofosbuvir; assay type: cell-based; settings: data not shown
[13] = substrate RDV MetX, read-out: Inhibition (IC50) of enzyme activities, HINT1
[14] = pH 5.5, fluorogenic peptide substrate, read-out: Inhibition (IC50) of enzyme activities, CatA pH 5.5
[15] = pH 6.5, fluorogenic peptide substrate, read-out: Inhibition (IC50) of enzyme activities, CatA pH 6.5
[16] = substrate 4-NPA, read-out: Inhibition (IC50) of enzyme activities, CES1c
[17] = substrate 4-NPA, read-out: Inhibition (IC50) of enzyme activities, CES1b

T1 sequence (P49773 whole entry): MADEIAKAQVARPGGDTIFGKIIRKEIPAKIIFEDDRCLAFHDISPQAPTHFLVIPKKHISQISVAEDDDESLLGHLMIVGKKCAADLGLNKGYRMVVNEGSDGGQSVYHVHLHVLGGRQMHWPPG

SMILES | Effect on GS-443902 formation in NHBE cells [1] | IC50 [2, 13] [µM] | IC50 [3, 14] [µM] | IC50 [3, 15] [µM] | IC50 [4, 16] [µM] | IC50 [5] [µM] | IC50 [6, 17] [µM] | CC50 at 48 h [7] [µM] | IC50 [8] [µM] | IC50 [2] [µM] | IC50 [9] [µM] | IC50 ([3]; IC50 values range for CatA, range over pH 6.5 and pH 5.5) [µM] | IC50 ([3]; Inhibition (IC50) of enzyme activities, CatA pH 5.5, pH 5.5, fluorogenic peptide substrate) [µM] | IC50 ([3]; Inhibition (IC50) of enzyme activities, CatA pH 6.5, pH 6.5, fluorogenic peptide substrate) [µM] | IC50 [4] [µM] | IC50 [6] [µM] | EC50 [10] [µM] | IC50 ([9]; substrate 4-NPA, read-out: Inhibition (IC50) of enzyme activities, CES2) [µM] | Kd [11] [µM] | Effect on cellular activation of sofosbuvir (SOF) [12]
O=[N+]([O-])c1ccc(OP(=O)(O)Oc2ccc([N+](=O)[O-])cc2)cc1 [BNPP, bis(4-nitrophenyl)phosphate] | did not cause a significant change in GS-443902 formation | > 100 | > 100 | > 100 | 14 ± 5.6 | 0.11 | 0.75 ± 0.12 |  |  |  |  |  |  |  |  |  |  |  |  | 
CCC[C@H](NC(=O)[C@@H]1[C@H]2CCC[C@H]2CN1C(=O)[C@@H](NC(=O)[C@@H](NC(=O)c1cnccn1)C1CCCCC1)C(C)(C)C)C(=O)C(=O)NC1CC1 [Telaprevir] | dose-dependent inhibition of GS-443902 formation |  |  |  |  |  |  | 29.2 | 0.21 | > 100 | > 100 | 0.078 to 0.34 | 0.34 ± 0.06 | 0.078 ± 0.009 | > 100 | > 100 | > 50 |  |  | 
Nc1nc2c(ncn2[C@@H]2O[C@H](COC(=O)NCCc3c[nH]c4ccccc34)[C@@H](O)[C@H]2O)c(=O)[nH]1 [TrpGc] | neither of them significantly altered | 1.5 ± 0.5 | > 100 | > 100 | > 100 |  | > 100 |  |  |  |  |  |  |  |  |  |  | > 100 | 3.65 | neither TrpGc nor compound 7
